The results in this text go back to the METLIN SMRT retention time set (Domingo-Almenara et al. 2019).

The structures appear in SMILES notation.

This series is described as follows: gradient 5% acetonitrile 3 min, to 50% in 2 min, to 85% in 15 min, held 3 min, 100 µL/min. The following applies: column: Zorbax Extend-C18 2.1 x 50 mm; eluents: water / acetonitrile, 0.1% formic acid. The method, boiled down: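 Pure standards were run in mixtures of ~100 molecules by HPLC coupled to a quadrupole time-of-flight mass spectrometer. The column was a Zorbax Extend-C18 (2.1 × 50 mm, 1.8 μm) at 100 μL/min, with water and acetonitrile each containing 0.1% formic acid, in positive and negative ionization mode. Dead and dwell volumes were 40 μL and 900 μL. Retention time was taken from computationally picked adduct peaks, each manually inspected, with data collected over 3 months.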
Consider `COC(=O)c1cc(C)nc2c1c(=O)n(Cc1nc(-c3ccccc3OC)oc1C)c(=O)n2C`, for which the RP-LC retention time is 971 s.

`CCc1cc(C2CCCN2C(=O)Nc2cccc(Cl)c2)on1` (stereo not drawn) came in with an RP-LC retention time of 924 s.

`Cn1nc(CNC(=O)c2ccccc2Br)c2ccccc21` had an RP-LC retention time of 757 s.

On to `CCOC(=O)C1CCCN(C(=O)CCCn2c(=O)c3cccn3c3ccc(Br)cc32)C1` (stereo not drawn), for which the RP-LC retention time was 971 s.

For `CCOC(=O)c1ccccc1NC(=O)CSc1ccc(N2CCCC(C(=O)NC3CC3)C2)nn1` (stereo not drawn), the RP-LC retention time turned out to be 680 s.

Compound `CN1c2ccccc2C(=O)NC12CCN(C(=O)NCc1ccccc1)CC2` returned an RP-LC retention time of 705 s.

`COc1cccc(C(=O)NC2(C(F)(F)F)C(=O)N(CC3CCCO3)C3=C2C(=O)CC(C)(C)C3)c1` (stereo not drawn) showed an RP-LC retention time of 922 s.

In turn, `CN1CCN(C(=O)c2nnc(-c3ccc(S(=O)(=O)N4CCCCC4)cc3)o2)CC1` displayed an RP-LC retention time of 654 s.

As to `COc1ccc(-c2nnc(-c3ccc(C)c(S(=O)(=O)NC(C)(C)CO)c3)o2)cc1OC`, the RP-LC retention time turned out to be 749 s.

`Cc1noc(-c2ccnc(-n3cnc(C(=O)NC(C)C)c3)c2)n1` showed an RP-LC retention time of 712 s.

Turning to `Cc1ccc(-c2noc(-c3nnn(Cc4nc(-c5cccc(Cl)c5)oc4C)c3C)n2)cc1`, the RP-LC retention time turned out to be 908 s.

Compound `CCS(=O)(=O)Nc1cccc(C2=NN(S(=O)(=O)CC)C(c3ccco3)C2)c1` (stereo not drawn) displayed an RP-LC retention time of 753 s.

Regarding `COC(=O)Nc1ccc(S(=O)(=O)N2CCCC(C(=O)O)C2)cc1` (stereo not drawn), the RP-LC retention time was 640 s.

`CCCOc1nn(CCC)cc1C(=O)Nc1nccs1`: the RP-LC retention time turned out to be 865 s.

`Cc1ccc(-c2ccnc3nc(-c4ccccc4)nn23)cc1` displayed an RP-LC retention time of 1020 s.

Turning to `CCc1nc2cc(N3CCC(C(=O)NC(C)c4ccccn4)CC3)cnc2nc1CC` (stereo not drawn), the RP-LC retention time turned out to be 628 s.

`Cc1cc(C)cc(OCC(=O)N2CCCCC2CCN2CCOCC2)c1` (stereo not drawn): the RP-LC retention time came to 668 s.

With `CCOc1ccc(C(=O)c2ccc(Cl)c(N)c2)cc1`, the RP-LC retention time was found to be 935 s.

In turn, `CCc1ccc(OCC(=O)N2CCCCC2CCN2CCCCC2)cc1` (stereo not drawn) yielded an RP-LC retention time of 703 s.

For `O=C(CN1C(=O)NC2(CCCCC2)C1=O)Nc1cc(F)ccc1F`, the RP-LC retention time was determined as 779 s.

As to `CCn1c(CCNC(=O)c2ccc(OC)nc2)nc2cccnc21`, the RP-LC retention time came out at 732 s.

Compound `Cc1ccc(C)c(CNC(=O)C2CCN(c3cnc4nccnc4c3)CC2)c1` displayed an RP-LC retention time of 722 s.

The compound `CCOC(=O)c1c(C)[nH]c(C)c1S(=O)(=O)N1CCC(C(=O)NCc2cccc(C)c2)CC1` showed an RP-LC retention time of 668 s.

`Cc1[nH]c2ccccc2c1C(=O)C(=O)Nc1ccc2c(c1)OCO2` came in with an RP-LC retention time of 782 s.

Compound `Cc1ccc(-c2noc(-c3cccn4c(=O)n(Cc5ccc6c(c5)OCO6)nc34)n2)cc1` gave an RP-LC retention time of 1010 s.

For the compound `Nc1ccc2c(c1)S(=O)(=O)c1cc(N)ccc1-2`, the RP-LC retention time is 635 s.

In turn, `COCc1noc([C@@H]2CN(Cc3cn(C)c4ccccc34)C[C@H]2CO)n1` came in with an RP-LC retention time of 616 s.

In turn, `CC(C)(NC(=O)c1cccs1)C(=O)N1CCN(c2ccccc2)CC1` registered an RP-LC retention time of 687 s.

As to `Cc1nc2cc(-c3noc(-c4ccccc4)n3)ccc2o1`, the RP-LC retention time is 1050 s.

Take `O=C(CN1C(=O)CCC1=O)N1CCC(c2noc(-c3cnccn3)n2)C1` (stereo not drawn): the RP-LC retention time amounted to 591 s.

For the compound `O=C(c1ccc(C(F)(F)F)cc1)N1CCN(c2nnc3ccccn23)CC1`, the RP-LC retention time was determined as 698 s.

For the compound `C=CCn1c(=O)c2ccccc2n(Cc2nc(-c3ccccc3Br)no2)c1=O`, the RP-LC retention time amounted to 1040 s.

For the compound `Fc1cccc(-c2nnc(Cc3nc(-c4ccc5c(c4)OCO5)no3)o2)c1`, the RP-LC retention time amounted to 958 s.
